Data as given in the NIST ThermoML archive (doi:10.1016/j.fluid.2010.02.038).
± gives the expanded uncertainty stated by the source.

Assay: relative permittivity at various frequencies (dimensionless); xn = mol fraction of the nth substance listed
Details: 303.15 K, 101 kPa, Liquid, Frequency=1 MHz, Capacitive measurement method at f=1 MHz

| SMILES | relative permittivity (x2 = 0) | relative permittivity (x2 = 0.068) | relative permittivity (x2 = 0.141) | relative permittivity (x2 = 0.22) | relative permittivity (x2 = 0.305) | relative permittivity (x2 = 0.397) | relative permittivity (x2 = 0.497) | relative permittivity (x2 = 0.606) | relative permittivity (x2 = 0.725) | relative permittivity (x2 = 0.856) |
| --- | --- | --- | --- | --- | --- | --- | --- | --- | --- | --- |
| CN(C)C=O [dimethylformamide] + NCCO | 36.55 ± 0.22 |  |  |  |  |  |  |  |  |  |
| NC=O [formamide] + NCCO | 106.14 ± 0.64 | 97.77 ± 1.3 | 90.12 ± 1.2 | 81.77 ± 1.1 | 74.02 ± 0.98 | 66.34 ± 0.87 | 59.14 ± 0.77 | 52.04 ± 0.71 | 44.61 ± 0.66 | 36.91 ± 0.53 |
